In patent publication US8980879B2 (AbbVie Inc., priority 2013, dated 2015) one finds EC50 and Ki data, which are given here for 31 compounds.

Experiment [1] relates to breast cancer cell line MX-1. Nature of the experiment: MX-1 cell line proliferation assay. The experiment is classed as cell-based. As to conditions: Homo sapiens, MX1; MX-1 cells, 3-day (72 h) proliferation, Cell Titer Glo; read-out: Cellular proliferation: EC50. Here is the method: MX-1 Cell Line Proliferation Assay
The impact of compounds of the Examples on cancer cell proliferation was determined using the breast cancer cell line MX-1 (ATCC) in a 3-day proliferation assay and the data are reported in Table 1. MX-1 cells were maintained in RPMI 1640 medium (Sigma) supplemented with 10% FBS at 37 C.° and an atmosphere of 5% CO2. For compound testing, MX-1 cells were plated in 96-well black bottom plates at a density of 5000 cells/well in 90 μL of culture media and incubated at 37° overnight to allow cell adhesion and spreading. Compound dilution series were prepared in DMSO via a 3-fold serial dilution from 3 mM to 0.1 μM. The DMSO dilution series were then diluted 1:100 in phosphate buffered saline, and 10 μL of the resulted solution were added to the appropriate wells of the MX-1 cell plate. The final compound concentrations in the wells were 3, 1, 0.3, 0.1, 0.03, 0.01, 0.003, 0.001, 0.0003 and 0.0001 μM.
Luminescence readings from the Cell Titer Glo assay were normalized to the DMSO treated cells and analyzed using the GraphPad Prism software with sigmoidal curve fitting to obtain EC50s. The minimum significant ratio (MSR) was determined to evaluate assay reproducibility (Eastwood et al., (2006) J Biomol Screen, 11: 253-261). The overall MSR was determined to be 2.1 and a moving MSR (last six run MSR overtime) has been <2.

Experiment [2] concerns the target T1, BRD4 (BDII_E352-M457) (Homo sapiens, UniProt O60885).
T1 construct: protocol; made in house
Nature of the experiment: TR-FRET bromodomain binding assay, BRD4 second bromodomain. The procedure:
(§1) A time-resolved fluorescence resonance energy transfer (TR-FRET) assay was used to determine the affinities of compounds of the Examples listed in Table 1 for each bromodomain of BRD4. His-tagged first (BD1: amino acids K57-E168) and second (BD2: amino acids E352-E168) bromodomains of BRD4 were expressed and purified. An Alexa647-labeled BET-inhibitor was used as the fluorescent probe in the assay.
(§2) Compound dilution series were prepared in DMSO via an approximately 3-fold serial dilution from one of the following:
(§3) Assay method D: 500 μM-8.5 nM
(§4) Assay method E: 0.47 mM to 7.8 nM
(§5) Assay method F: 250 μM-4.2 nM
(§6) Assay method G: 0.047 mM to 0.78 nM
(§7) or 5-fold serial dilution from one of the following:
(§8) Assay method A: 2.5 mM-800 nM
(§9) Assay method B: 2.5 mM-797 nM
(§10) For Assay methods A, C, D, and F: Compounds were then diluted 6:100 in assay buffer (20 mM Sodium Phosphate, pH 6.0, 50 mM NaCl, 1 mM Ethylenediaminetetraacetic acid, 0.01% Triton X-100, 1 mM DL-Dithiothreitol) to yield 3× working solutions. Six microliters (μL) of the working solution was then transferred to white, low-volume assay plates (Costar #3673). A 1.5× assay mixture containing His-tagged bromodomain, Europium-conjugated anti-His antibody (Invitrogen PV5596) and the Alexa-647-conjugated probe molecule was also prepared. Twelve μL of this solution were added to the assay plate to reach a final volume of 18 μL.
(§11) For Assay methods B, E, and G: Compound dilutions were added directly into white, low-volume assay plates (Perkin Elmer Proxiplate 384 Plus#6008280) using a Labcyte Echo in conjunction with Labcyte Access and Thermo Multidrop CombinL robotics. Compounds were then suspended in eight microliters (μL) of assay buffer (20 mM Sodium Phosphate, pH 6.0, 50 mM NaCl, 1 mM Ethylenediaminetetraacetic acid disodium salt dihydrate, 0.01% Triton X-100, 1 mM DL-Dithiothreitol) containing His-tagged bromodomain, Europium-conjugated anti-His antibody (Invitrogen PV5596) and Alexa-647-conjugated probe.
(§12) The final concentration of 1× assay mixture for assay methods A, B, C, D, E, F, and G contains 2% DMSO, 8 nM His-tagged bromodomain, 1 nM Europium-conjugated anti-His-tag antibody and 100 nM or 30 nM probe (for BDI or BDII, respectively) and compound concentration in the range of: 50 μM-16 nM for method A, 49.02 μM-15.63 nM for method B, 25 μM-423 pM for method C, 10 μM-169 pM for method D, 9.19 μM 150 pM for method E, 5 μM-85 pM for method F, and 0.92 μM-15 pM for method G.
(§13) After a one-hour equilibration at room temperature, TR-FRET ratios were determined using an Envision multilabel plate reader (Ex 340, Em 495/520).
(§14) TR-FRET data were normalized to the means of 24 no-compound controls (“high”) and 8 controls containing 1 μM un-labeled probe (“low”). Percent inhibition was plotted as a function of compound concentration and the data were fit with the 4 parameter logistic equation to obtain IC50s Inhibition constants (Ki) were calculated from the IC50s, probe Kd and probe concentration. Typical Z′ values were between 0.65 and 0.75. The minimum significant ratio was determined to evaluate assay reproducibility (Eastwood et al., (2006) J Biomol Screen, 11: 253-261). The MSR was determined to be 2.03 for BDI and 1.93 for BDII, and a moving MSR (last six run MSR overtime) for both BDI and BDII was typically <3.
In general terms: Time-resolved FRET reads energy transfer from a long-lived donor to a nearby acceptor.

Experiment [3] has as its target T2, BRD4 (BDI_K57-E168) (Homo sapiens, UniProt O60885).
T2 construct: BD1: amino acids K57-E168; made in house
Nature of the experiment: TR-FRET bromodomain binding assay, BRD4 first bromodomain. Conditions: His-tagged BD1, 100 nM Alexa647 probe; assay protocol D or F as given per row in c1; Ki calculated from IC50. The procedure:
as §1, §2, §3, §4, §5, §6, §7, §8, §9, §10, §11, §12, §13, §14

Some results are limits rather than exact numbers.

A word on the Ki: it is a measure of affinity in units of concentration, obtained from inhibition or displacement. Consider `Cn1cc2c3c(c[nH]c(=O)c31)CNc1ccc(S(C)(=O)=O)cc1-2` [Example 1], for which, in experiment [1], the EC50 is more than 3000 nM. Further, the results for the Ki in experiment [2] and in experiment [3] were 2820 nM and 1350 nM, respectively.

In the case of `Cn1cc2c3c(c[nH]c(=O)c31)CN(CC1CC1)c1ccc(S(C)(=O)=O)cc1-2` [Example 2], the EC50 in experiment [1] was determined as 144 nM. In addition, the results for the Ki in experiment [2] and in experiment [3] were 430 nM and 21 nM, respectively.

`Cn1cc2c3c(c[nH]c(=O)c31)CN(C(=O)C1CC1)c1ccc(CS(C)(=O)=O)cc1-2` [Example 6]: in experiment [1], the EC50 was 16.4 nM. In addition, the Ki in experiment [2] was 2.44 nM; in experiment [3], 3.53 nM.

As for `Cn1cc2c3c(c[nH]c(=O)c31)CN(C(=O)c1ccccc1)c1ccc(CS(C)(=O)=O)cc1-2` [Example 7], in experiment [1], the EC50 was found to be 273 nM. Also, the Ki is 97.5 nM in experiment [2] and 59.1 nM in experiment [3].

For `COCCC1c2c[nH]c(=O)c3c2c(cn3C)-c2cc(CS(C)(=O)=O)ccc2N1c1ccc(F)cc1` (stereo not drawn) [Example 8], the EC50 in experiment [1] came out at 46.6 nM. The Ki in experiment [2] was 25.2 nM; in experiment [3] it was 5.81 nM.

For the compound `COC(=O)CCC1c2c[nH]c(=O)c3c2c(cn3C)-c2cc(CS(C)(=O)=O)ccc2N1c1ccc(F)cc1` (stereo not drawn) [Example 9], in experiment [1], the EC50 worked out at 805 nM. For the same compound, the Ki in experiment [2] was 18.2 nM; in experiment [3] it was 6.29 nM.

As to `Cn1cc2c3c(c[nH]c(=O)c31)C(CC1CCOCC1)N(c1ccc(F)cc1)c1ccc(CS(C)(=O)=O)cc1-2` (stereo not drawn) [Example 10], the EC50 in experiment [1] came out at 81.6 nM. The Ki in experiment [2] was 57.4 nM; in experiment [3] it was 8.23 nM.

For the compound `Cn1cc2c3c(c[nH]c(=O)c31)CN(CC1CC1)c1ccccc1-2` [Example 11], the EC50 in experiment [1] stood at 56.8 nM. The Ki in experiment [2] was 18.9 nM; in experiment [3], 7.14 nM.

Take `CCS(=O)(=O)Nc1ccc2c(c1)-c1cn(C)c3c(=O)[nH]cc(c13)CN2c1ccc(F)cc1` [Example 12]: in experiment [1], the EC50 turned out to be 5.63 nM. Moreover, the Ki in experiment [2] is 4.3 nM; in experiment [3], 2.18 nM.

With `Cn1cc2c3c(c[nH]c(=O)c31)CN(c1ccc(F)cc1)c1ccc(Cl)cc1-2` [Example 13], the EC50 in experiment [1] turned out to be 72 nM. Moreover, the Ki was 34.1 nM in experiment [2] and 2.74 nM in experiment [3].

With `Cn1cc2c3c(c[nH]c(=O)c31)CN(c1ccc(F)cc1)c1ncc(N)cc1-2` [Example 14], in experiment [1], the EC50 worked out at 2.78 nM. Moreover, the Ki in experiment [2] was 3.69 nM; in experiment [3], 3 nM.

As to `CCOC(=O)C1c2c[nH]c(=O)c3c2c(cn3C)-c2cc(CS(C)(=O)=O)ccc2N1c1ccc(F)cc1` (stereo not drawn) [Example 15], the EC50 in experiment [1] was 36.3 nM. The Ki in experiment [2] is 26.9 nM; in experiment [3] it was 9.14 nM.

Regarding `Cn1cc2c3c(c[nH]c(=O)c31)CN(c1ccc(F)cc1)c1ncc(F)cc1-2` [Example 16], the EC50 in experiment [1] worked out at 5.55 nM. Also, the results for the Ki in experiment [2] and in experiment [3] were 5.07 nM and 0.79 nM, respectively.

`Cn1cc2c3c(c[nH]c(=O)c31)CN(c1ccc(F)cc1)c1ncc(NC(=O)Cc3cc(F)ccc3Cl)cc1-2` [Example 17]: the EC50 in experiment [1] stood at 19.9 nM. Also, the figures for the inhibition constant Ki in experiment [2] and in experiment [3] were 2.48 nM and 1.43 nM, respectively.

Consider `Cc1cc(CC(=O)Nc2cnc3c(c2)-c2cn(C)c4c(=O)[nH]cc(c24)CN3c2ccc(F)cc2)nn1C` [Example 18], for which the EC50 in experiment [1] amounted to 7.02 nM. Further, the Ki in experiment [2] was 3.46 nM; in experiment [3], 1.82 nM.

On to `Cn1cc2c3c(c[nH]c(=O)c31)CN(c1ccc(F)cc1)c1ncc(NC(=O)Cn3ccc(-c4ccccc4F)n3)cc1-2` [Example 19], for which the EC50 in experiment [1] turned out to be 68.7 nM. The Ki in experiment [2] was 11.6 nM; in experiment [3] it was 1.32 nM.

`Cn1cc2c3c(c[nH]c(=O)c31)C(c1ccccc1)N(c1ccc(F)cc1)c1ccc(Cl)cc1-2` (stereo not drawn) [Example 24]: the Ki is more than 408 nM in experiment [2] and 178 nM in experiment [3].

Consider `Cn1cc2c3c(c[nH]c(=O)c31)CN(c1ccc(F)cc1)c1ccc(NC(=O)Cc3ccc(Cl)cc3F)cc1-2` [Example 29], for which the Ki in experiment [2] was 22.4 nM; in experiment [3] it was 3.03 nM.

As to `Cn1cc2c3c(c[nH]c(=O)c31)CN(c1ccc(F)cc1)c1ccc(NC(=O)Cn3ccc(-c4ccccc4F)n3)cc1-2` [Example 31], the Ki in experiment [2] is 79.5 nM; in experiment [3], 11.5 nM.

With `COc1cccc(NC(=O)Nc2ccc3c(c2)-c2cn(C)c4c(=O)[nH]cc(c24)CN3c2ccc(F)cc2)c1` [Example 45], the Ki in experiment [2] was 130 nM; in experiment [3], 7.12 nM.

For the compound `Cn1cc2c3c(c[nH]c(=O)c31)CN(c1ccc(F)cc1)c1ccc(NC(=O)Cc3ccc4c(c3)CCCO4)cc1-2` [Example 46], the Ki was 19.7 nM in experiment [2] and 3.29 nM in experiment [3].

`Cn1cc2c3c(c[nH]c(=O)c31)CN(c1ccc(F)cc1)c1ccc(NC(=O)Cc3cc(F)ccc3C(F)(F)F)cc1-2` [Example 51]: the Ki in experiment [2] was 84.8 nM; in experiment [3], 5.12 nM.

Take `Cc1ccc(C)c(CC(=O)Nc2ccc3c(c2)-c2cn(C)c4c(=O)[nH]cc(c24)CN3c2ccc(F)cc2)c1` [Example 53]: the Ki in experiment [2] was 50.1 nM; in experiment [3], 2.61 nM.

In the case of `Cn1cc2c3c(c[nH]c(=O)c31)CN(c1ccc(F)cc1)c1ccc(NC(=O)Cc3ccccc3)cc1-2` [Example 54], the Ki is 17.9 nM in experiment [2] and 2.07 nM in experiment [3].

Turning to `Cn1cc2c3c(c[nH]c(=O)c31)CN(c1ccc(F)cc1)c1ccc(NC(=O)Cc3cc(Cl)ccc3Oc3ccccc3)cc1-2` [Example 55], the Ki is 240 nM in experiment [2] and 9.31 nM in experiment [3].

For the compound `COc1ccc(F)cc1CNC(=O)c1ccc2c(c1)-c1cn(C)c3c(=O)[nH]cc(c13)CN2c1ccc(F)cc1` [Example 56], the figures for the Ki in experiment [2] and in experiment [3] were 57.4 nM and 1.74 nM, respectively.

As for `CC(NC(=O)c1ccc2c(c1)-c1cn(C)c3c(=O)[nH]cc(c13)CN2c1ccc(F)cc1)c1ccc(F)cc1` (stereo not drawn) [Example 59], the values for the Ki in experiment [2] and in experiment [3] were 71.5 nM and 2.89 nM, respectively.

As for `CC(NC(=O)c1ccc2c(c1)-c1cn(C)c3c(=O)[nH]cc(c13)CN2c1ccc(F)cc1)c1ccc(Cl)cc1Cl` (stereo not drawn) [Example 61], the Ki was 147 nM in experiment [2] and 5.17 nM in experiment [3].

As for `Cn1cc2c3c(c[nH]c(=O)c31)CN(c1ccc(F)cc1)c1ccc(C(=O)NCc3cc(F)ccc3F)cc1-2` [Example 64], the Ki in experiment [2] was 46.9 nM; in experiment [3], 1.73 nM.

As to `Cn1cc2c3c(c[nH]c(=O)c31)CN(c1ccc(F)cc1F)c1ncc(N)cc1-2` [Example 67], the Ki in experiment [2] was 7 nM; in experiment [3], 21.2 nM.

For `CC(=O)N1CCC(N2Cc3c[nH]c(=O)c4c3c(cn4C)-c3cc(N)ccc32)CC1` [Example 73], the Ki was 41.8 nM in experiment [2] and 7.08 nM in experiment [3].
